Reference: PubChem BioAssay AID248 (DTP/NCI, 2004)
Inconclusive results and toxic doses are left out. No stated cut-off is given here; in the data, active means T/C of 150% or more; inactive means T/C below 125%.

System: L1210 leukemia ip in BDF1 mice, survival T/C
Experiment: NCI In Vivo Anticancer Drug Screen. Data for tumor model L1210 Leukemia (intraperitoneal) in B6D2F1 (BDF1) mice
Conditions: endpoint: mean survival time, higher = longer survival
In short: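 Ratio derived from survival: compound-dosed mice over vehicle-dosed mice, all bearing a transplantable tumor.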

[1] = dose: 25.0 mg/kg/injection, schedule: Q04DX003 (ip), vehicle: saline
[2] = dose: 50.0 mg/kg/injection, schedule: Q04DX003 (ip), vehicle: saline
[3] = dose: 100.0 mg/kg/injection, schedule: Q01DX009 (ip), vehicle: Klucel (hydroxypropylcellulose) (HPC)
[4] = dose: 100.0 mg/kg/injection, schedule: Q04DX003 (ip), vehicle: Klucel (hydroxypropylcellulose) (HPC)
[5] = dose: 200.0 mg/kg/injection, schedule: Q01DX009 (ip), vehicle: Klucel (hydroxypropylcellulose) (HPC)
[6] = dose: 200.0 mg/kg/injection, schedule: Q04DX003 (ip), vehicle: Klucel (hydroxypropylcellulose) (HPC)
[7] = dose: 400.0 mg/kg/injection, schedule: Q01DX009 (ip), vehicle: Klucel (hydroxypropylcellulose) (HPC)
[8] = dose: 400.0 mg/kg/injection, schedule: Q04DX003 (ip), vehicle: Klucel (hydroxypropylcellulose) (HPC)
[9] = dose: 100.0 mg/kg/injection, schedule: Q04DX003 (ip), vehicle: saline
[10] = dose: 200.0 mg/kg/injection, schedule: Q04DX003 (ip), vehicle: saline
[11] = dose: 75.0 mg/kg/injection, schedule: Q01DX001 (ip), vehicle: other
[12] = dose: 150.0 mg/kg/injection, schedule: Q01DX001 (ip), vehicle: other

Measured: T/C

CCCCCCCC[Si](c1ccc(C)cc1)(c1ccc(C)cc1)c1ccc(C)cc1
inactive: dose: 100.0 mg/kg/injection, schedule: Q01DX001 (ip), vehicle: other 97 % of control | dose: 200.0 mg/kg/injection, schedule: Q01DX001 (ip), vehicle: other 95 % of control | dose: 400.0 mg/kg/injection, schedule: Q01DX001 (ip), vehicle: other 97 % of control

CC(=O)NC1CCCCCC1I (stereo not drawn)
inactive: dose: 10.0 mg/kg/injection, schedule: Q01DX001 (ip), vehicle: saline 105 % of control | dose: 20.0 mg/kg/injection, schedule: Q01DX001 (ip), vehicle: saline 101 % of control | dose: 40.0 mg/kg/injection, schedule: Q01DX001 (ip), vehicle: saline 98 % of control

CC(C)(CC(N)=O)C(=O)O
inactive: dose: 50.0 mg/kg/injection, schedule: Q01DX001 (ip), vehicle: saline 102 % of control | dose: 100.0 mg/kg/injection, schedule: Q01DX001 (ip), vehicle: saline 115 % of control | dose: 200.0 mg/kg/injection, schedule: Q01DX001 (ip), vehicle: saline 113 % of control | dose: 400.0 mg/kg/injection, schedule: Q01DX001 (ip), vehicle: saline 110 % of control

Cc1c2cnccc2c(C)c2c1c1ccccc1n2CCN(C)C
inactive: dose: 12.5 mg/kg/injection, schedule: Q04DX003 (ip), vehicle: saline 105 % of control | [1] 97 % of control | [2] 102 % of control | dose: 300.0 mg/kg/injection, schedule: Q04DX003 (ip), vehicle: saline 113 % of control

CCN(CC)CCCC(C)Nc1cccc2c1C(=O)c1c(c(O)c3ccccc3c1O)C2=O (stereo not drawn)
inactive: dose: 25.0 mg/kg/injection, schedule: Q04DX002 (ip), vehicle: saline 93 % of control | dose: 50.0 mg/kg/injection, schedule: Q04DX002 (ip), vehicle: saline 93 % of control | dose: 100.0 mg/kg/injection, schedule: Q04DX002 (ip), vehicle: saline 93 % of control

Nc1ccc2c(c1)S(=O)(=O)c1cc(O)ccc1O2
inactive: [3] 98 % of control | [4] 102 % of control | [5] 95 % of control | [6] 97 % of control | [7] 96 % of control | [8] 102 % of control

Nc1c(-c2ccccc2)nnn1-c1ccc2ccccc2c1
inactive: dose: 100.0 mg/kg/injection, schedule: Q04DX002 (ip), vehicle: gum acacia 101 % of control | dose: 200.0 mg/kg/injection, schedule: Q04DX002 (ip), vehicle: gum acacia 96 % of control | dose: 400.0 mg/kg/injection, schedule: Q04DX002 (ip), vehicle: gum acacia 96 % of control

O=C1C=CC(CCCCCn2ccc(=O)[nH]c2=O)C(=O)N1 (stereo not drawn)
inactive: [9] 105 % of control | [10] 96 % of control | dose: 400.0 mg/kg/injection, schedule: Q04DX003 (ip), vehicle: saline 97 % of control

S=C1SCN(C2CCCCC2)CN1C1CCCCC1
inactive: [3] 94 % of control | [4] 91 % of control | [5] 95 % of control | [6] 100 % of control | [7] 94 % of control | [8] 100 % of control

S=c1c2[nH]cnc2ncn1C1CCCC1
inactive: dose: 5.0 mg/kg/injection, schedule: Q01DX001 (ip), vehicle: other 100 % of control | dose: 10.0 mg/kg/injection, schedule: Q01DX001 (ip), vehicle: other 106 % of control | dose: 15.0 mg/kg/injection, schedule: Q01DX009 (ip), vehicle: saline with Tween-80 119 % of control | dose: 20.0 mg/kg/injection, schedule: Q01DX001 (ip), vehicle: other 103 % of control | dose: 33.5 mg/kg/injection, schedule: Q01DX009 (ip), vehicle: saline with Tween-80 104 % of control

CC1=C(C)CC2(C)N(C)CC2(C)C1 (stereo not drawn)
inactive: dose: 37.0 mg/kg/injection, schedule: Q04DX003 (ip), vehicle: other 104 % of control | dose: 37.5 mg/kg/injection, schedule: Q01DX009 (ip), vehicle: other 110 % of control | [11] 107 % of control | dose: 75.0 mg/kg/injection, schedule: Q01DX009 (ip), vehicle: other 100 % of control | dose: 75.0 mg/kg/injection, schedule: Q04DX003 (ip), vehicle: other 101 % of control | [12] 115 % of control | dose: 150.0 mg/kg/injection, schedule: Q01DX009 (ip), vehicle: other 93 % of control | dose: 150.0 mg/kg/injection, schedule: Q04DX003 (ip), vehicle: other 106 % of control

CCC(C1CCC(O)CC1)C(CC)C1CCC(C2=CC(=O)OC2)CC1 (stereo not drawn)
inactive: [1] 100 % of control | [2] 94 % of control | [9] 94 % of control

CC(C)C(C(=O)O)N1C(=O)C2C3CCC(C3)C2C1=O (stereo not drawn)
inactive: [1] 86 % of control | [2] 93 % of control | dose: 100.0 mg/kg/injection, schedule: Q04DX003 (ip), vehicle: saline with Tween-80 89 % of control | [9] 96 % of control | dose: 200.0 mg/kg/injection, schedule: Q04DX003 (ip), vehicle: saline with Tween-80 103 % of control | dose: 400.0 mg/kg/injection, schedule: Q04DX003 (ip), vehicle: saline with Tween-80 98 % of control

CC1CC=C(N2CCOCC2)CC1 (stereo not drawn)
inactive: [3] 98 % of control | [5] 97 % of control | [7] 103 % of control

CCOC(=O)C(C#N)N=O (stereo not drawn)
inactive: dose: 6.25 mg/kg/injection, schedule: Q04DX003 (ip), vehicle: Klucel (hydroxypropylcellulose) (HPC) 89 % of control | dose: 12.5 mg/kg/injection, schedule: Q04DX003 (ip), vehicle: Klucel (hydroxypropylcellulose) (HPC) 91 % of control | dose: 25.0 mg/kg/injection, schedule: Q01DX009 (ip), vehicle: Klucel (hydroxypropylcellulose) (HPC) 95 % of control | dose: 25.0 mg/kg/injection, schedule: Q04DX003 (ip), vehicle: Klucel (hydroxypropylcellulose) (HPC) 92 % of control | dose: 50.0 mg/kg/injection, schedule: Q01DX009 (ip), vehicle: Klucel (hydroxypropylcellulose) (HPC) 103 % of control | [2] 100 % of control | [3] 97 % of control

O=C1C=C(c2ccccc2)C(O)(c2ccccc2)/C1=C/c1ccccc1 (stereo not drawn)
inactive: dose: 6.25 mg/kg/injection, schedule: Q04DX002 (ip), vehicle: saline with Tween-80 100 % of control | dose: 12.5 mg/kg/injection, schedule: Q04DX002 (ip), vehicle: saline with Tween-80 92 % of control | dose: 25.0 mg/kg/injection, schedule: Q04DX002 (ip), vehicle: saline with Tween-80 92 % of control

O=C(O)CCCCCNCc1cc(=O)[nH]c(=O)[nH]1
inactive: [9] 97 % of control | [10] 101 % of control

O=C(Nc1ccc(C2=NCCN2)cc1)c1ccc(Br)c(C(=O)Nc2ccc(C3=NCCN3)cc2)c1
inactive: dose: 15.0 mg/kg/injection, schedule: Q01DX Z (ip), vehicle: saline 101 % of control | dose: 20.0 mg/kg/injection, schedule: Q01DX Z (ip), vehicle: water 102 % of control | dose: 30.0 mg/kg/injection, schedule: Q01DX Z (ip), vehicle: saline 117 % of control | dose: 30.0 mg/kg/injection, schedule: Q01DX Z (ip), vehicle: water 120 % of control

Clc1nc2nc3n(c2nc1Cl)CCC3(Br)Br
inactive: dose: 12.5 mg/kg/injection, schedule: Q01DX009 (ip), vehicle: other 112 % of control | dose: 25.0 mg/kg/injection, schedule: Q01DX009 (ip), vehicle: other 114 % of control | dose: 50.0 mg/kg/injection, schedule: Q01DX009 (ip), vehicle: other 112 % of control | dose: 100.0 mg/kg/injection, schedule: Q01DX009 (ip), vehicle: other 110 % of control

C[n+]1ccc(/C=C\Nc2ccccc2)cc1
inactive: [11] 94 % of control | [12] 94 % of control | dose: 300.0 mg/kg/injection, schedule: Q01DX001 (ip), vehicle: other 94 % of control
